Patent US20090018134A1, “Compounds - 945” (AstraZeneca AB, priority 2007, published 2009)

Biological target: T1, mTOR (Homo sapiens, UniProt P42345)
T1 construct: FLAG; made in house
Assay: In Vitro mTOR Kinase Assay (Echo), Test (a)(ii)
Assay type: biochemical
Conditions: table of enzyme assay Test (a)(ii); read-out: Test (a)(ii) IC50
Procedure, shortened: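 FLAG-tagged human mTOR truncation (residues 1362-2549) expressed in HEK293 cells and FLAG-purified. Compounds dispensed acoustically, reaction 2 h at room temperature, stopped with EDTA. Phosphorylation of biotinylated peptide detected by AlphaScreen with anti-p70 S6K (T389) antibody overnight; IC50 reported.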

T1 sequence (P42345 1362-2549): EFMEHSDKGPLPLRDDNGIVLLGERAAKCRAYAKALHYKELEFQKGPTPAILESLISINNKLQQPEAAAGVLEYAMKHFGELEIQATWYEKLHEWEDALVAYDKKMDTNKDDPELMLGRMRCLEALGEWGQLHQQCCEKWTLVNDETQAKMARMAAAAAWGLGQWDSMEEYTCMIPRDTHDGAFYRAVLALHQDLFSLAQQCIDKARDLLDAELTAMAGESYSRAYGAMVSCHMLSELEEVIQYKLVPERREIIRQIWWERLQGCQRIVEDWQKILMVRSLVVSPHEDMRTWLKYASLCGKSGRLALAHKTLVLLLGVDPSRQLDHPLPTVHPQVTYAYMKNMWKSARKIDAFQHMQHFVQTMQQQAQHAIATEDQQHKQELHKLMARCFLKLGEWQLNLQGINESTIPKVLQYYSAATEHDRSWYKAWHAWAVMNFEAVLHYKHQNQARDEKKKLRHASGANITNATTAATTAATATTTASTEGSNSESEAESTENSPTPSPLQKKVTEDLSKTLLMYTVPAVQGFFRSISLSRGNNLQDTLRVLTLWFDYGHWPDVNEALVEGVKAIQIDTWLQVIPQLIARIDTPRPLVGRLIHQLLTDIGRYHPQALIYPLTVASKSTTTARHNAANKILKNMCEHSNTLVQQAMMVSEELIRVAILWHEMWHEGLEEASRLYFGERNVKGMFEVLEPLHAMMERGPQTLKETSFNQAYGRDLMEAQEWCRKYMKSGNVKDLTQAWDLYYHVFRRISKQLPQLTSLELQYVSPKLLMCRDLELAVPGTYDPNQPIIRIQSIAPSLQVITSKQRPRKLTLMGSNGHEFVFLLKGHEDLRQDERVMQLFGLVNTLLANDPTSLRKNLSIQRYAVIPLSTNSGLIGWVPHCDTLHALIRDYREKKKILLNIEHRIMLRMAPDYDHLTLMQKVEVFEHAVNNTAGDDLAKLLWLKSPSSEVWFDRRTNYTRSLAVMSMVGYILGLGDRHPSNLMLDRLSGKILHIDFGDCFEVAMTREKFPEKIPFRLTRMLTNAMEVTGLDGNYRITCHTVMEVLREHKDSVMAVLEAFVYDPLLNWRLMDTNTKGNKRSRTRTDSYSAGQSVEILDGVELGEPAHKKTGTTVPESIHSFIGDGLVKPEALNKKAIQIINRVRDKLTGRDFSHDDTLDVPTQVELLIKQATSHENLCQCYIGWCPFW

Row | Structure (SMILES) | IC50
1 | CNC(=O)Nc1ccc(-c2nc(N3CCOC[C@@H]3C)cc(C3(S(=O)(=O)c4ccc(C(=O)N(C)C)cn4)CC3)n2)cc1 [Example 49, N,N-Dimethyl-6-[1-[2-[4-(methylcarbamoylamino)phenyl]-6-[(3S)-3-methylmorpholin-4-yl]pyrimidin-4-yl]cyclopropyl]sulfonylpyridine-3-carboxamide] | 1.87 nM
2 | CNC(=O)Nc1ccc(-c2nc(N3CCOC[C@@H]3C)cc(C3(S(=O)(=O)c4cccnc4C(=O)N(C)C)CC3)n2)cc1 [Example 50, N,N-Dimethyl-3-[1-[2-[4-(methylcarbamoylamino)phenyl]-6-[(3S)-3-methylmorpholin-4-yl]pyrimidin-4-yl]cyclopropyl]sulfonylpyridine-2-carboxamide] | 10.4 nM
3 | C[C@H]1COCCN1c1cc(C2(S(=O)(=O)c3cccc(F)c3)CC2)nc(-c2ccc(NC(=O)NCCO)cc2)n1 [Example 53b, 1-[4-[4-[1-(3-fluorophenyl)sulfonylcyclopro-pyl]-6-[(3S)-3-methylmorpholin-4-yl]pyrimidin-2-yl]phenyl]-3-(2-hydroxyethyl)urea] | 0.669 nM
4 | C[C@H]1COCCN1c1cc(C2(S(=O)(=O)c3cccc(F)c3)CC2)nc(-c2ccc(NC(=O)NCCF)cc2)n1 [Example 53c, 3-(2-fluoroethyl)-1-[4-[4-[1-(3-fluorophenyl)sulfonylcyclopro-pyl]-6-[(3S)-3-methylmorpholin-4-yl]pyrimidin-2-yl]phenyl]urea] | 0.688 nM
5 | C[C@H]1COCCN1c1cc(C2(S(=O)(=O)c3cccc(F)c3)CC2)nc(-c2ccc(NC(=O)NCC(F)F)cc2)n1 [Example 53d, 3-(2,2-difluoroethyl)-1-[4-[4-[1-(3-fluorophenyl)sulfonylcyclopro-pyl]-6-[(3S)-3-methylmorpholin-4-yl]pyrimidin-2-yl]phenyl]urea] | 3.1 nM
6 | C[C@H]1COCCN1c1cc(C2(S(=O)(=O)c3cccc(F)c3)CC2)nc(-c2ccc(NC(=O)Nc3cnn(C)c3)cc2)n1 [Example 53f, 1-[4-[4-[1-(3-fluorophenyl)sulfonylcyclopro-pyl]-6-[(3S)-3-methylmorpholin-4-yl]pyrimidin-2-yl]phenyl]-3-(1-methylpyrazol-4-yl)urea] | 6.34 nM
7 | Cc1ccccc1S(=O)(=O)C1(c2cc(N3CCOC[C@@H]3C)nc(-c3ccc(NC(=O)NCCO)cc3)n2)CC1 [Example 54b, 3-(2-hydroxyethyl)-1-[4-[4-[(3S)-3-methylmorpholin-4-yl]-6-[1-(2-methylphenyl)sulfonylcyclo-propyl]pyrimidin-2-yl]phenyl]urea] | 3.17 nM
8 | Cc1ccccc1S(=O)(=O)C1(c2cc(N3CCOC[C@@H]3C)nc(-c3ccc(NC(=O)NCCF)cc3)n2)CC1 [Example 54c, 3-(2-fluoroethyl)-1-[4-[4-[(3S)-3-methylmorpholin-4-yl]-6-[1-(2-methylphenyl)sulfonylcyclo-propyl]pyrimidin-2-yl]phenyl]urea] | 4.53 nM
9 | Cc1ccccc1S(=O)(=O)C1(c2cc(N3CCOC[C@@H]3C)nc(-c3ccc(NC(=O)NCC(F)F)cc3)n2)CC1 [Example 54d, 3-(2,2-difluoroethyl)-1-[4-[4-[(3S)-3-methylmorpholin-4-yl]-6-[1-(2-methylphenyl)sulfonylcyclo-propyl]pyrimidin-2-yl]phenyl]urea] | 8.82 nM
10 | CCNC(=O)Nc1ccc(-c2nc(N3CCOC[C@@H]3C)cc(C3(S(=O)(=O)c4ccccc4C)CC3)n2)cc1 [Example 54e, 1-ethyl-3-[4-[4-[(3S)-3-methylmorpholin-4-yl]-6-[1-(2-methylphenyl)sulfonylcyclo-propyl]pyrimidin-2-yl]phenyl]urea] | 7.62 nM
11 | Cc1ccccc1S(=O)(=O)C1(c2cc(N3CCOC[C@@H]3C)nc(-c3ccc(NC(=O)Nc4cnn(C)c4)cc3)n2)CC1 [Example 54f, 1-[4-[4-[(3S)-3-methylmorpholin-4-yl]-6-[1-(2-methylphenyl)sulfonylcyclo-propyl]pyrimidin-2-yl]phenyl]-3-(1-methylpyrazol-4-yl)urea] | 10.7 nM
12 | Cc1nn(C)cc1S(=O)(=O)C1(c2cc(N3CCOC[C@@H]3C)nc(-c3ccc(NC(=O)NCCO)cc3)n2)CC1 [Example 55b, 1-[4-[4-[1-(1,3-dimethylpyrazol-4-yl)sulfonylcyclopropyl]-6-[(3S)-3-methylmorpholin-4-yl]pyrimidin-2-yl]phenyl]-3-(2-hydroxyethyl)urea] | 16.1 nM
13 | Cc1nn(C)cc1S(=O)(=O)C1(c2cc(N3CCOC[C@@H]3C)nc(-c3ccc(NC(=O)NCCF)cc3)n2)CC1 [Example 55c, 1-[4-[4-[1-(1,3-dimethylpyrazol-4-yl)sulfonylcyclopropyl]-6-[(3S)-3-methylmorpholin-4-yl]pyrimidin-2-yl]phenyl]-3-(2-fluoroethyl)urea] | 18.9 nM
14 | Cc1nn(C)cc1S(=O)(=O)C1(c2cc(N3CCOC[C@@H]3C)nc(-c3ccc(NC(=O)NCC(F)F)cc3)n2)CC1 [Example 55d, 3-(2,2-difluoroethyl)-1-[4-[4-[1-(1,3-dimethylpyrazol-4-yl)sulfonylcyclopropyl]-6-[(3S)-3-methylmorpholin-4-yl]pyrimidin-2-yl]phenyl]urea] | 35.1 nM
15 | CCNC(=O)Nc1ccc(-c2nc(N3CCOC[C@@H]3C)cc(C3(S(=O)(=O)c4cn(C)nc4C)CC3)n2)cc1 [Example 55e, 3-[4-[4-[1-(1,3-dimethylpyrazol-4-yl)sulfonylcyclopropyl]-6-[(3S)-3-methylmorpholin-4-yl]pyrimidin-2-yl]phenyl]-1-ethylurea] | 20.4 nM
16 | Cc1nn(C)cc1S(=O)(=O)C1(c2cc(N3CCOC[C@@H]3C)nc(-c3ccc(NC(=O)Nc4cnn(C)c4)cc3)n2)CC1 [Example 55f, 1-[4-[4-[1-(1,3-dimethylpyrazol-4-yl)sulfonylcyclopropyl]-6-[(3S)-3-methylmorpholin-4-yl]pyrimidin-2-yl]phenyl]-3-(1-methylpyrazol-4-yl)urea] | 15.6 nM

The next lines start with the values.

Row | IC50 | Structure (SMILES)
17 | 2.67 nM | C[C@H]1COCCN1c1cc(C2(S(=O)(=O)c3ccc(C(=O)N(C)C)cn3)CC2)nc(-c2ccc(NC(=O)NC3CC3)cc2)n1 [Example 49a]
18 | 7.94 nM | C[C@H]1COCCN1c1cc(C2(S(=O)(=O)c3cccnc3C(=O)N(C)C)CC2)nc(-c2ccc(NC(=O)NC3CC3)cc2)n1 [Example 50a]
19 | 3.32 nM | CNC(=O)Nc1ccc(-c2nc(N3CCOC[C@@H]3C)cc(C3(S(=O)(=O)CCOC)CC3)n2)cc1 [Example 51, 1-[4-[4-[1-(2-Methoxyethylsulfonyl)cyclopropyl]-6-[(3S)-3-methylmorpholin-4-yl]pyrimidin-2-yl]phenyl]-3-methylurea]
20 | 18.4 nM | C[C@H]1COCCN1c1cc(C2(S(C)(=O)=O)CC2)nc(-c2ccc(NC(=O)NC3CC3)c(F)c2)n1 [Example 52, 3-cyclopropyl-1-[2-fluoro-4-[4-[(3S)-3-methylmorpholin-4-yl]-6-(1-methylsulfonylcyclopropyl)pyrimidin-2-yl]phenyl]urea]
21 | 10.3 nM | CNC(=O)Nc1ccc(-c2nc(N3CCOC[C@@H]3C)cc(C3(S(C)(=O)=O)CC3)n2)cc1F [Example 52a, 1-[2-fluoro-4-[4-[(3S)-3-methylmorpholin-4-yl]-6-(1-methylsulfonylcyclopropyl)pyrimidin-2-yl]phenyl]-3-methylurea]
22 | 30.7 nM | CCNC(=O)Nc1ccc(-c2nc(N3CCOC[C@@H]3C)cc(C3(S(C)(=O)=O)CC3)n2)cc1F [Example 52b, 3-ethyl-1-[2-fluoro-4-[4-[(3S)-3-methylmorpholin-4-yl]-6-(1-methylsulfonylcyclopropyl)pyrimidin-2-yl]phenyl]urea]
23 | 29.6 nM | C[C@H]1COCCN1c1cc(C2(S(C)(=O)=O)CC2)nc(-c2ccc(NC(=O)NCCO)c(F)c2)n1 [Example 52c, 1-[2-fluoro-4-[4-[(3S)-3-methylmorpholin-4-yl]-6-(1-methylsulfonylcyclopropyl)pyrimidin-2-yl]phenyl]-3-(2-hydroxyethyl)urea]
24 | 2.18 nM | CNC(=O)Nc1ccc(-c2nc(N3CCOC[C@@H]3C)cc(C3(S(=O)(=O)c4cccc(F)c4)CC3)n2)cc1 [Example 53, 1-[4-[4-[1-(3-Fluorophenyl)sulfonylcyclopropyl]-6-[(3S)-3-methylmorpholin-4-yl]pyrimidin-2-yl]phenyl]-3-methylurea]
25 | 2.29 nM | C[C@H]1COCCN1c1cc(C2(S(=O)(=O)c3cccc(F)c3)CC2)nc(-c2ccc(NC(=O)NC3CC3)cc2)n1 [Example 53a, 3-cyclopropyl-1-[4-[4-[1-(3-fluorophenyl)sulfonylcyclopro-pyl]-6-[(3S)-3-methylmorpholin-4-yl]pyrimidin-2-yl]phenyl]urea]
26 | 1.98 nM | CCNC(=O)Nc1ccc(-c2nc(N3CCOC[C@@H]3C)cc(C3(S(=O)(=O)c4cccc(F)c4)CC3)n2)cc1 [Example 53e, 1-ethyl-3-[4-[4-[1-(3-fluorophenyl)sulfonylcyclopro-pyl]-6-[(3S)-3-methylmorpholin-4-yl]pyrimidin-2-yl]phenyl]urea]
27 | 2.17 nM | CNC(=O)Nc1ccc(-c2nc(N3CCOC[C@@H]3C)cc(C3(S(=O)(=O)c4ccccc4C)CC3)n2)cc1 [Example 54, 3-Methyl-1-[4-[4-[(3S)-3-methylmorpholin-4-yl]-6-[1-(2-methylphenyl)sulfonylcyclopropyl]pyrimidin-2-yl]phenyl]urea]
28 | 9.18 nM | Cc1ccccc1S(=O)(=O)C1(c2cc(N3CCOC[C@@H]3C)nc(-c3ccc(NC(=O)NC4CC4)cc3)n2)CC1 [Example 54a, 3-cyclopropyl-1-[4-[4-[(3S)-3-methylmorpholin-4-yl]-6-[1-(2-methylphenyl)sulfonylcyclo-propyl]pyrimidin-2-yl]phenyl]urea]
29 | 2.96 nM | CNC(=O)Nc1ccc(-c2nc(N3CCOC[C@@H]3C)cc(C3(S(=O)(=O)c4cn(C)nc4C)CC3)n2)cc1 [Example 55, 1-[4-[4-[1-(1,3-Dimethylpyrazol-4-yl)sulfonylcyclopropyl]-6-[(3S)-3-methylmorpholin-4-yl]pyrimidin-2-yl]phenyl]-3-methylurea]
30 | 21.3 nM | Cc1nn(C)cc1S(=O)(=O)C1(c2cc(N3CCOC[C@@H]3C)nc(-c3ccc(NC(=O)NC4CC4)cc3)n2)CC1 [Example 55a, 3-cyclopropyl-1-[4-[4-[1-(1,3-dimethylpyrazol-4-yl)sulfonylcyclopropyl]-6-[(3S)-3-methylmorpholin-4-yl]pyrimidin-2-yl]phenyl]urea]
